Earlier results in patent US8633332B2, “Efficient isolation of cimiracemate A, and methods of use” (Purapharm Company Limited, priority 2009, dated 2014).
Entries after “also recorded” stand apart in the source; their conditions may differ.

Assays:
[1] = system: MAP kinase; conditions: human macrophages
[2] = system: specific transcription factors; conditions: human macrophages, LPS-induced
[3] = system: TNF-α; conditions: human macrophages

COc1ccc(/C=C/C(=O)OCC(=O)Cc2ccc(O)c(O)c2)cc1O [Cimiracemate A]
inhibition of LPS-induced MAP kinase activities (specific kinase phosphorylation) [1]: suppresses; also recorded: inhibit | inhibition of activation of specific transcription factors [2]: suppresses; also recorded: inhibit | suppression of LPS-induced TNF-α production [3]: suppresses; also recorded: suppress
